Results on 1 compound are retold here after BindingDB's records for doi:10.1021/jm050113z (University of North Carolina at Chapel Hill, 2005).

This test has as its target T1, Protein RecA (Escherichia coli (strain K12), UniProt P0A7G6).
T1 sequence (P0A7G6 whole entry): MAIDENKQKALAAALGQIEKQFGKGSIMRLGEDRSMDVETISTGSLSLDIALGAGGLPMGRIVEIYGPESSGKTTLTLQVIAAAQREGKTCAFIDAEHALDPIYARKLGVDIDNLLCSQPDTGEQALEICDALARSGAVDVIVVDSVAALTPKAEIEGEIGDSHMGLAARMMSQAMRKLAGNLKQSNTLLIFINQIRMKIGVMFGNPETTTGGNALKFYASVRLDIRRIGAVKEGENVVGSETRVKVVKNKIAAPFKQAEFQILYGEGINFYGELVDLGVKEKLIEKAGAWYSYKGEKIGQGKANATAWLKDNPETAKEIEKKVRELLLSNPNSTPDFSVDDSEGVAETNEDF
Description: In vitro apparent inhibition constant against Escherichia coli RecA protein.

For `O=P(O)(O)OP(=O)(O)OC[C@H]1O[C@@H](n2cnc3c(Nc4cccc5ccccc45)ncnc32)[C@H](O)[C@@H]1O`, the Ki is 46 µM.
